According to patent publication US20030187261A1, “Purine derivatives, process for their preparation and use thereof” (priority 2000, published 2003):

Columns and labels:
KG1 = assay: clonogenic output of KG1 in methylcellulose; format: cell-based, human; settings: 25 μM, 14 days
Protocol: (§1) Cell lines: Human leukemic cell lines were obtained from the American Type Culture Collection (ATCC, Rockville, Md., USA). They were cultured in Iscove's Modified Dulbecco's Medium (IMDM) supplemented with 10% heat inactivated fetal calf serum (FCS), 200 U/ml penicillin, 200 μg/ml streptomycin and 1 μg/ml amphotericin B. Cells were cultured in a 5% CO2-95% air fully humidified incubator. For effects on clonogenic output, 1000 cells/well were plated in duplicate in methylcellulose (0.9%), supplemented with 20% FCS and cultured for 14 days.
Clonogenic output of KG1 was tested in methylcellulose with 25 μM of some of the novel compounds.

KG1 cells = assay: apoptosis and cell cycle in KG1 cells (fluorescence microscopy, TUNEL); format: cell-based, human; settings: for speed of apoptosis induction (microscopic examination): KG1, 6-72 hours of exposure, FIG. 4; for apoptotic cells in G0-G1 phase versus control cells: KG1, TUNEL with EB, FIG. 6
Protocol: Nuclear morphology of the cells was analysed with the fluorochromes Hoechst 33342 (λEx max 346 nm; λEm max 460 nm) (Sigma) prepared in phosphate-buffered saline (PBS at 0.1 mg/ml, added to the culture medium at a final concentration of 2 μg/ml and ethidium bromide (EB) (λEx max 540 nm; λEm max 625 nm) (Sigma) prepared in PBS at 100 μg/ml and added to the culture medium at a final concentration of 2 μg/ml (Lizard, 1995). Hundred cells were counted for each sample and percentage of apoptosis was determined.
Control and novel compound-treated cell cultures were washed with PBS and fixed in […] (pH 7.4) for 15 minutes on ice. After washing in PBS, cells were permeabilized in 70% cold (−20° C.) ethanol and transferred to 4° C. for at least 1 hour. After rehydratation in PBS, cells were labeled with 50 μl/well TUNEL reaction mixture (Boehringer Mannheim). Cells were incubated in this solution at 37° C. for 40 minutes, washed in PBS and resuspended in 500 μl PBS containing 5 μg/ml EB and 0.1% RNAse. After 30 minutes of incubation at 4° C., green (FITC-dUTP) and red (EB-DNA) fluorescence of individual cells was measured on a FACscan flow cytometer (Gorczyca, 1993). Negative control (fixed and permeabilized cells incubated with 50 μl label solution per well without terminal transferase, instead of TUNEL reaction mixture) and positive control (fixed and permeabilized cells incubated with DNase I (100 μg/ml) that induces DNA strand breaks) were included in each experimental set-up.
Flow cytometric detection of apoptosis combined with DNA staining can identify apoptotic cells and simultaneously evaluate their position in the cell cycle. This technique was used to provide infomation about the possible cell cycle specific initiation of apoptosis by the tested compounds. If more than 2% of apoptotic cells were detected by the TUNEL method and the absolute number of acquired apoptotic events exceeded 2000, DNA content was simultaneously measured. Within the apoptotic population, analysis and calculation of the different cell cycle phases was carried out by an iterative curve fitting procedure (ModFit LT cell cycle analysis sofware from Verity software house, INC).
Viable, apoptotic, necrotic (=primary necrosis, not following apoptosis) and secondarily necrotic cells (=late apoptotis, evolving to necrosis) were scored differentially after 6, 12, 24, 48 and 72 hours of exposure to novel compounds. For the three products a different apoptosis-inducing pattern could be observed. Apoptosis induction occurs fast after incubation with P23 and P28 but slower after incubation with P27.
Flow cytometric detection of apoptosis and cell cycle analysis: The induction of apoptotic death of KG1 cells by the novel compounds was confirmed using the TUNEL reaction technique (FIG. 5). […] Incubation of KG1 cell line with P27 results in detectable apoptosis after 24 hours. Percentage of apoptotic cells in G0-G1 increases with time, while the number of apoptotic cells in S+G2/M phases decreases. […] After 6 and 12 hours of incubation the apoptotic population seems mainly to evolve from S phase.

[1] = test system: T-lymphocyte leukemia Molt3 cell line; assay: cell growth of Molt3 cell line, flow cytometric cell count; format: cell-based, human; settings: 96 hours of culture
Protocol: as §1
Cells were plated at 10000 per well in 200 μl IMDM medium and incubated with 0-50 μM of the compounds of the invention (Table 5), by addition of the drugs directly to the culture medium and incubated at 37° C. for 96 hours. Absolute cell number was determined by addition of a known concentration of Fluoresbrite microspheres (FITC) (Polysciences, Inc.). The absolute number of cells per well was calculated as: {(total number of beads added per well)/(number of beads measured)}×(number of measured cells in the gate of interest). All analyses were performed with a FACScan (BD), using CELLQuest software (Becton Dickinson).
The response of the myeloid leukemia KG1 and T-lymphocyte leukemia Molt3 cell lines to the cytostatic effect of the novel compounds was determined using the above-mentioned standardized bead suspension that was used to determine the absolute cell number by flow cytometric (FCM) measurement. Cells were grown in the presence of increasing concentrations of the compounds of the invention.

CDC2 = target: T1, CDC2 (Homo sapiens, UniProt P06493); assay: p34cdc2 (CDC2) kinase inhibition assay, histone H1 substrate; format: biochemical; settings: Table 5, CDC2 activity in cell free system
T1 construct: made in house; host or cells: Sf9 insect cells, baculovirus co-infection
T1 sequence (P06493 whole entry, species assumed): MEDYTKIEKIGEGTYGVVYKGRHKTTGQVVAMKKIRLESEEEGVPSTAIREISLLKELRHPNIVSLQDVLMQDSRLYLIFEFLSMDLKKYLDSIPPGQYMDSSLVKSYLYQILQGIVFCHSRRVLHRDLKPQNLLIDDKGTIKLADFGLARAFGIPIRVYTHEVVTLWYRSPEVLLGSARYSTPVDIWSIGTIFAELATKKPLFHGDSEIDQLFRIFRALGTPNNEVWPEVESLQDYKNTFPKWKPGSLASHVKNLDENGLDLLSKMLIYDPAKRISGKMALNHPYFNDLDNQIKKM
T1 sequence (P14635 whole entry partner, species assumed): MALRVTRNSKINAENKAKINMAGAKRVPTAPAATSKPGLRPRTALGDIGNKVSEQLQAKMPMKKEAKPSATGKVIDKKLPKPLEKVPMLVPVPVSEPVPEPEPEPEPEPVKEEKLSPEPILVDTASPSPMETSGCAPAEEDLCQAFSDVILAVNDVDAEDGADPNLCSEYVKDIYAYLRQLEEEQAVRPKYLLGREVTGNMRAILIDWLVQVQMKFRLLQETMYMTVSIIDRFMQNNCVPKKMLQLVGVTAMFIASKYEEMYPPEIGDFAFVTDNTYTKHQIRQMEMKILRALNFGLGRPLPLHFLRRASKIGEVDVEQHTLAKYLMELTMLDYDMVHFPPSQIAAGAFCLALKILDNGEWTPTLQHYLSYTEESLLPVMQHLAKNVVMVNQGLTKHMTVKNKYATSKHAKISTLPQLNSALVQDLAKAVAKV
Protocol: Cyclin-dependent kinases (p34^cdc2, p33^cdk2, p33^cdk4 and cyclins (cyclin B, E and DI) are produced in Sf9 insect cells coinfected with appropriate baculoviral constructs. The cells are harvested 68-72 hrs post infection in lysis buffer for 30 min on ice and the soluble fraction is recovered by centrifugation at 14.000 g for 10 min. The protein extract is stored at −80° C.
To carry out experiments on kinetics under linear conditions, the final point test system for kinase activity measurement is used. The kinase is added to the reaction mixture in such a way that linear activity is obtained with respect to the concentration of enzyme and with respect to time.
Inhibition of p33^cdk4 kinase is determined with Rb-GST (0.2 mg/ml) as the substrate. Kinase activity is determined at 30° C. in kinase buffer.
Tested compounds are usually dissolved to 100 mM solutions in DMSO, the final concentration of DMSO in reaction mixture never exceeds 1%. The controls contain suitable dilutions of DMSO. After 10 min, the addition of 3×SDS sample buffer stops the incubations. […] The measurement of kinase activity is done using digital image analysis. The kinase activity is expressed as a percentage of maximum activity, the apparent inhibition constants are determined by graphic analysis. Kinase buffer: 50 mM Hepes pH 7.4, 10 mM MgCl21 5 mM EGTA, 10 mM 2-glycerolphosphate,

Compound | Colony output vs. control cultures without novel compound (KG1) [%] | speed of apoptosis induction (microscopic examination) (KG1 cells) | apoptotic cells in G0-G1 phase versus control cells (KG1 cells) | IC50 ([1]; Homo sapiens, MOLT-3) [µM] | IC50 (CDC2) [µM] | time of incubation after which apoptosis was detected (TUNEL) (KG1 cells; KG1) [h] | IC50 [1] [µM]
CCCCCCNc1nc(NC(CO)c2ccccc2)c2ncn(C(C)C)c2n1 (centres unmarked) [P23, 2-(hexylamino)-6-(1-phenyl-2-hydroxyethylamino)-9-isopropylpurine] | 19 | fast | no significant differences were detected | 16 ± 0.8 | 60 |  | 
2-(3-aminoethylamino)-6-(3,3-dihydroxybenzyl)amino-9-isopropylpurine [P28] | 0 | fast | increase with time after 24 hours |  | 1.5 | 6 | 14 ± 1.8
